Laboratory results taken from PMC10995865 (Virus Research, 2024).

What was measured:
AsfvPolX-DNA complex = AsfvPolX-DNA complex (African swine fever virus, UniProt P42494); assay: biochemical; format: binding
AsfvPolX = AsfvPolX (African swine fever virus, UniProt P42494); conditions: cited from earlier work
AsfvPolX, sequence (P42494 whole entry, looked up): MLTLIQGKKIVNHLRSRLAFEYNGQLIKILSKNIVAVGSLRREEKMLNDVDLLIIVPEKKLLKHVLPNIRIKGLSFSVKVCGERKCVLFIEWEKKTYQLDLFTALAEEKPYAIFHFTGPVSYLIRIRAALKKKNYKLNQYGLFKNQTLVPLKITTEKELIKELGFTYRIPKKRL

AsfvPolX-DNA complex, sequence (P42494 whole entry, looked up, one chain of several): as the sequence (P42494 whole entry, looked up) above

Row | Molecule | inhibition at 100 µM (AsfvPolX-DNA complex; read-out: Inhibition of AsfvPolX-DNA complex formation) [%] | Effect on AsfvPolX activity (AsfvPolX) | Inhibition of AsfvPolX-DNA complex formation (AsfvPolX-DNA complex; 100 µM) [%] | Inhibition of AsfvPolX activity (AsfvPolX; 100 µM) [%]
1 | COc1cc(Nc2ncc(F)c(Nc3ccc4c(n3)N(COP(=O)(O)O)C(=O)C(C)(C)O4)n2)cc(OC)c1OC [fostamatinib] | 0 | dose-dependent decrease |  | 
2 | pentagastrin |  |  | 0 | 60
